{
  "source": "patent US8058451B2",
  "about": "“Hydroxycucurbituril derivatives, their preparation methods and uses” (Postech Foundation, priority 2002, dated 2011)",
  "key": {"[1]": {"experiment": "Binding constant measurement by microcalorimeter (VP-ITC) with KCl solution", "conditions": "0.05 M Tris-buffered solution pH 7.2; 5.5 mM host, 110 mM KCl", "procedure": "Since the hydroxycucurbituril derivatives obtained in Synthesis Example 1 have Lewis base atoms near the cavities of the molecule, they can effectively form a complex with metal ions or positively charged organic compounds. With these features, in order to investigate whether the hydroxycucurbituril derivatives having this property can be applied in manufacturing sensors for sensing metal ions or ammonium ions, the following example was carried out.\nA 0.05 M Tris-buffered solution of pH 7.2 was prepared, and then a 5.5 mM hydroxycucurbit[5]uril (CB[5]^OH) solution prepared in Synthesis Example 2 and 110 mM of a KCl solution were prepared. Then, the binding constants of the cucurbit[5]uril derivative was measured using a microcalorimeter (VP-ITC, manufactured by MicroCal)."}, "[2]": {"experiment": "Binding of ammonium ions in organic solvent (CD3CN)", "conditions": "5.5 mg host, 6.7 mg (NH4)+(BPh4)-, 0.5 mL CD3CN", "procedure": "To investigate whether ammonium ions present in an organic solvent can bind with CB[5]^OH, the following example was carried out.\n5.5 mg of CB[5]^OH prepared in Synthesis Example 2 and 6.7 mg of (NH4)^+(BPh4)^− were dissolved in 0.5 mL CD3CN. Then, ammonium ions in (NH4)^+(BPh4)^− could bind with CB[5]^OH in an acetonitrile solution."}, "[3]": {"experiment": "Ion selective electrode, potential differences on adding lead ions", "conditions": "1 mM Mg(OAc)2-HCl buffered solution pH 4; lead ions 10^-6 M to 10^-3 M", "procedure": "A solution obtained by dissolving 1% by weight of CB[5]^OH prepared in Synthesis Example 2 in 0.1 mL of methanol, 33% by weight of polyvinylchloride used as a polymer support, 65.6% by weight of 2-nitrophenyloctylether used as a plasticizer and 0.4 mL of tetrahydrofuran dissolved in 0.4% by weight of potassium tetrakis(4-chlorophenyl)borate, were homogenously mixed, followed by slowly removing the solvent, to form an ion selective membrane. An ion selective electrode was fabricated with this ion selective membrane. An electrode with a silver wire coated with silver chloride in a 0.05 M aqueous KCl solution was used as a reference electrode.\nThe reference electrode and the ion selective electrode were immersed in 250 mL of 1 mM Mg(OAc)2—HCl buffered solution (pH=4), followed by continuously stirring for at least 1 hour until a membrane boundary potential was stabilized. Thereafter, potential differences were measured with adding lead ions to increase the concentration by 10 fold in the range of 10^−6 M to 10^−3 M using a micropipet at an interval of 100 seconds"}, "[4]": {"experiment": "Ion selective electrode responses to ammonium, potassium, sodium, choline and acetylcholine ions", "procedure": "1% by weight of allyoxycucurbit[6]uril prepared in Synthesis Example 8, 33% by weight of polyvinylchloride and 66% by weight of 2-nitrophenyloctylether were dissolved in THF to form a membrane. With this membrane, an ion selective electrode was fabricated. Then, the responses of the electrode with respect to ammonium ion, potassium ion, sodium ion, choline ion and acetylcholine ion were measured in a 0.01M Tris-buffered solution. As a result, the selectivity of choline with respect to acetylcholine was −1.84, ammonium ion −1.31, potassium ion −0.90 and sodium ion −1.16, respectively. The allyloxycurcubit[6]uril according to the present invention can be advantageously used in clinical analysis by selective detection of a neurotransmitter in vivo, e.g., acetylcholine, instead of choline which is a major obstacle in analyzing acetylcholine. The ion selective electrode using allyoxycucurbit[6]uril can be used in measuring acetylcholine in a concentration range of 2.1×10^−6 M."}, "[5]": {"experiment": "Host-guest complex formation with tetrahydrofuran in D2O", "format": "binding", "conditions": "6.6 mg host, 10 μL tetrahydrofuran, 0.5 mL D2O", "procedure": "6.6 mg of hydroxycucurbit[6]uril (CB[6]^OH) prepared in Synthesis Example 1 and 10 μL of tetrahydrofuran were dissolved in 0.5 mL of D2O."}, "[6]": {"experiment": "Host-guest complex formation with cyclopentane in D2O", "format": "binding", "conditions": "6.6 mg host, 10 μL cyclopentane, 0.5 mL D2O", "procedure": "6.6 mg of hydroxycucurbit[6]uril (CB[6]^OH) prepared in Synthesis Example 1 and 10 μL of cyclopentane were dissolved in 0.5 mL of D2O."}, "[7]": {"experiment": "Host-guest complex formation with p-toluidine in D2O", "format": "binding", "conditions": "6.6 mg host, 1.2 mg p-toluidine, 0.5 mL D2O", "procedure": "6.6 mg of hydroxycucurbit[6]uril (CB[6]^OH) prepared in Synthesis Example 1 and 1.2 mg of p-toluidine were dissolved in 0.5 mL of D2O."}, "[8]": {"experiment": "Host-guest complex formation with p-toluidine hydrochloride in D2O", "format": "binding", "conditions": "6.6 mg host, 1.5 mg p-toluidine hydrochloride, 0.5 mL D2O", "procedure": "6.6 mg of hydroxycucurbit[6]uril (CB[6]^OH) prepared in Synthesis Example 1 and 1.5 mg of p-toluidine hydrochloride were dissolved in 0.5 mL of D2O."}, "[9]": {"experiment": "Host-guest complex formation with 1,4-phenylindiamine in D2O", "format": "binding", "conditions": "6.6 mg host, 1.2 mg 1,4-phenylindiamine, 0.5 mL D2O", "procedure": "6.6 mg of hydroxycucurbit[6]uril (CB[6]^OH) prepared in Synthesis Example 1 and 1.2 mg of 1,4-phenylindiamine were dissolved in 0.5 mL of D2O."}, "[10]": {"experiment": "Host-guest complex formation with isobutene gas in D2O", "format": "binding", "conditions": "6.6 mg host in 0.5 mL D2O, isobutene gas injected"}, "[11]": {"experiment": "Host-guest complex formation with acetylcholine chloride in D2O", "format": "binding", "conditions": "6.6 mg host, 2.0 mg acetylcholine chloride, 0.5 mL D2O", "procedure": "To investigate whether the hydroxycucurbituril derivatives prepared in Synthesis Example 1 can effectively transport physiologically active materials or drugs, the following example was carried out using acetylcholine chloride as a neurotransmitter."}},
  "data": [
    {"substance": "hydroxycucurbit[5]uril [CB[5]^OH]", "values": [
      {"measurement": "binding with alkali metal ions and ammonium ions (microcalorimeter)", "setting": "[1]", "result": "could selectively bind with alkali metal ions, as well as with ammonium ions"},
      {"measurement": "binding of ammonium ions of (NH4)+(BPh4)- in acetonitrile solution", "setting": "[2]", "result": "could bind"},
      {"measurement": "ion selective electrode detection of heavy metal ions (lead)", "setting": "[3]", "result": "could be used in detecting harmful heavy metal ions remaining in water"}
    ]},
    {"substance": "Allyloxycucurbit[6]uril [allyoxycucurbit[6]uril]", "values": [
      {"measurement": "concentration range in which acetylcholine can be measured", "setting": "[4]", "result": 2.1, "unit": "µM"}
    ]},
    {"substance": "hydroxycucurbit[6]uril [CB[6]^OH]", "values": [
      {"measurement": "host-guest complex formation with tetrahydrofuran", "setting": "[5]", "result": "Quantitative formation of a 1:1 host-guest complex"},
      {"measurement": "host-guest complex formation with cyclopentane", "setting": "[6]", "result": "Quantitative formation of a 1:1 host-guest complex"},
      {"measurement": "host-guest complex formation with p-toluidine", "setting": "[7]", "result": "Quantitative formation of a 1:1 host-guest complex"},
      {"measurement": "host-guest complex formation with p-toluidine hydrochloride", "setting": "[8]", "result": "Quantitative formation of a 1:1 host-guest complex"},
      {"measurement": "host-guest complex formation with 1,4-phenylindiamine", "setting": "[9]", "result": "Quantitative formation of a 1:1 host-guest complex"},
      {"measurement": "host-guest complex formation with isobutene gas", "setting": "[10]", "result": "forming a 1:1 host-guest complex"},
      {"measurement": "host-guest complex formation with acetylcholine chloride", "setting": "[11]", "result": "forming a 1:1 host-guest complex"}
    ]}
  ]
}
